According to US20240336588A1, “COMPOSITIONS AND METHODS FOR ANTIOXIDANT AND ANTI-INFLAMMATORY THERAPEUTICS” (AVANTI BIOSCIENCES INC., priority 2021, published 2024):

Molecular target: DYRK1A (HT-497, 6×His tagged rat truncated DYRK1A isoform X1 residues 1-497) (Rattus norvegicus (Rat), UniProt Q63470)
Experiment: DYRK1A ELISA assay (HT-PRD phosphorylation)
Assay type: biochemical
Conditions: 100 µM ATP, 5 ng HT-497, 30 min at 30° C.
Method: Compounds of Table 1, above, were examined in vitro for activity against DYRK1A, DYRK1B, DYRK2 via an ELISA assay.
DYRK1A assay. […] After blocking, wells were washed extensively with dilution buffer before subjecting to phosphorylation. […] At the end point, wells were washed with ˜350 μl dilution buffer three times to terminate the reaction. […] Each point was run in quadruplicate with DMSO present in all assays at 0.2% final concentration. […] HT-PRD phosphorylation was subsequently determined by the sandwich antibody staining protocol, first with 100 μl mouse mAb 3D3 specific for detecting DYRK1A-phosphorylated PRD (60 min at room temperature) then with 100 μl alkaline phosphatase (AP)-linked anti-mouse secondary antibody (60 min at room temperature), followed by colorimetric reaction with 100 μl PNPP solution (PNPP substrate tablet, Thermo Fisher). […] The readings were then recorded for subsequent IC50 calculation. The DYRK1A assay protocol can also support DYRK1B and DYRK2 phosphorylation reactions in the enzyme concentration-dependent manner; therefore, the method was adapted for measuring the activity of candidate compounds against DYRK1B and DYRK2. For DYRK2, the reactions were performed as described above with 6 ng HT-DYRK2 (6×His tagged full-length human DYRK2 isoform 1). For DYRK1B, the assays were also similarly conducted but with 70 ng GST-DYRK1B (glutathione S-transferase tagged full length human DYRK1B isoform p65) and an extended kinase reaction time of 60 min.
Dilution factors for both mAb 3D3 and secondary antibody were pre-determined for each batch of antibody to ensure that neither antibody was limiting in the assay.
Data transformation, calculation, plotting, curve fitting, and IC 50 calculation were performed in KaleidaGraph (http://www.synergy.com/wordpress_650164087; Mac version 4.1). Data was corrected for background (readings from wells with only PNPP) before subsequent manipulations. […] The resulting residual activity was then plotted against its corresponding inhibitor concentrations in semi-log graph and the plot was fit to the sigmoidal equation, y=a+(b−a)/(1+(x/c)^d), for IC50 calculation.

Compound	IC50 [nM]
Cc1c(C(=O)O[C@@H]2Cc3c(O)cc(O)cc3O[C@H]2c2cc(O)c(O)c(O)c2)ccc(O)c1O [Compound 63, (2S,3R)-5,7-dihydroxy-2-(3,4,5-trihydroxyphenyl)chroman-3-yl 3,4-dihydroxy-2-methylbenzoate]	> 100
O=C(O[C@@H]1Cc2c(O)cc(O)cc2O[C@H]1c1cc(O)c(O)cc1F)c1cc(O)c(O)c(O)c1F [Compound 48, (2S,3R)-2-(2-fluoro-4,5-dihydroxyphenyl)-5,7-dihydroxychroman-3-yl 2-fluoro-3,4,5-trihydroxybenzoate]	> 100
COc1cc(C(=O)O[C@H]2Cc3c(O)cc(O)cc3O[C@@H]2c2cc(O)c(O)c(O)c2)cc(O)c1O [Compound 18, (2R,3S)-5,7-dihydroxy-2-(3,4,5-trihydroxyphenyl)chroman-3-yl 3,4-dihydroxy-5-methoxybenzoate]	> 100
O=C(O[C@H]1Cc2c(O)cc(O)cc2O[C@@H]1c1cc(O)c(O)c(O)c1)c1ccc(O)cc1 [Compound 20, (2R,3S)-5,7-dihydroxy-2-(3,4,5-trihydroxyphenyl)chroman-3-yl 4-hydroxybenzoate]	> 1000
O=C(O[C@@H]1Cc2c(O)cc(O)cc2O[C@H]1c1ccc(O)c(O)c1)c1ccc(O)c(O)c1 [Compound 31, (2S,3R)-2-(3,4-dihydroxyphenyl)-5,7-dihydroxychroman-3-yl 3,4-dihydroxybenzoate]	> 100
COc1cc(C(=O)O[C@@H]2Cc3c(O)cc(O)cc3O[C@@H]2c2cc(O)c(O)c(O)c2)cc(O)c1O [Compound 8, (2R,3R)-5,7-dihydroxy-2-(3,4,5-trihydroxyphenyl)chroman-3-yl 3,4-dihydroxy-5-methoxybenzoate]	> 100
O=C(N[C@H]1Cc2c(O)cc(O)cc2O[C@@H]1c1cc(O)c(O)c(O)c1)c1ccc(O)cc1 [Compound 16, N-((2R,3S)-5,7-dihydroxy-2-(3,4,5-trihydroxyphenyl)chroman-3-yl)-4-hydroxybenzamide]	> 1000
O=C(N[C@H]1Cc2c(O)cc(O)cc2O[C@@H]1c1cc(O)c(O)c(O)c1)c1ccc(F)c(F)c1 [Compound 17, N-((2R,3S)-5,7-dihydroxy-2-(3,4,5-trihydroxyphenyl)chroman-3-yl)-3,4-difluorobenzamide]	> 1000
CCNC(=O)Oc1c(O)cc(C(=O)O[C@@H]2Cc3c(O)cc(O)cc3O[C@@H]2c2cc(O)c(O)c(O)c2)cc1O [Compound 13, (2R,3R)-5,7-dihydroxy-2-(3,4,5-trihydroxyphenyl)chroman-3-yl 4-((ethylcarbamoyl)oxy)-3,5-dihydroxybenzoate]	> 1000
O=C(O[C@H]1Cc2c(O)cc(O)cc2O[C@@H]1c1cc(O)c(O)c(O)c1)c1cnc(O)c(O)c1 [Compound 27, (2R,3S)-5,7-dihydroxy-2-(3,4,5-trihydroxyphenyl)chroman-3-yl 5,6-dihydroxynicotinate]	> 100
O=C(O[C@@H]1Cc2c(O)cc(O)cc2O[C@@H]1c1ccc(O)c(O)c1)c1cc(O)c(O)c(O)c1 [Compound 6, (2R,3R)-2-(3,4-dihydroxyphenyl)-5,7-dihydroxychroman-3-yl 3,4,5-trihydroxybenzoate]	> 100
O=C(O[C@@H]1Cc2c(O)cc(O)cc2O[C@@H]1c1cc(O)c(O)c(O)c1)c1ccncc1 [Compound 23, (2R,3R)-5,7-dihydroxy-2-(3,4,5-trihydroxyphenyl)chroman-3-yl isonicotinate]	> 1000
Nc1ncc(C(=O)O[C@@H]2Cc3c(O)cc(O)cc3O[C@H]2c2cc(O)c(O)c(O)c2)cc1O [Compound 36, (2S,3R)-5,7-dihydroxy-2-(3,4,5-trihydroxyphenyl)chroman-3-yl 6-amino-5-hydroxynicotinate]	> 1000
CCC(=O)Oc1cc(O)c2c(c1)O[C@H](c1cc(O)c(O)c(O)c1)[C@H](OC(=O)c1cc(O)c(O)c(O)c1)C2 [Compound 69, (2R,3R)-5-hydroxy-7-(propionyloxy)-2-(3,4,5-trihydroxyphenyl)chroman-3-yl 3,4,5-trihydroxybenzoate]	> 100
O=C(O[C@@H]1Cc2c(O)cc(O)cc2O[C@H]1c1cc(O)c(O)c(O)c1)c1cc(O)c(O)c(F)c1 [Compound 66, (2S,3R)-5,7-dihydroxy-2-(3,4,5-trihydroxyphenyl)chroman-3-yl 3-fluoro-4,5-dihydroxybenzoate]	> 100
O=C(O[C@@H]1Cc2ccccc2C[C@H]1c1cc(O)c(O)c(O)c1)c1cc(O)c(O)c(O)c1 [Compound 53, (2R,3S)-3-(3,4,5-trihydroxyphenyl)-1,2,3,4-tetrahydronaphthalen-2-yl 3,4,5-trihydroxybenzoate]	> 1000
O=C(O[C@@H]1Cc2c(O)cc(O)cc2O[C@H]1c1cc(O)c(O)cc1F)c1cc(O)c(O)c(O)c1 [Compound 45, (2S,3R)-2-(2-fluoro-4,5-dihydroxyphenyl)-5,7-dihydroxychroman-3-yl 3,4,5-trihydroxybenzoate]	> 100
O=C(O[C@@H]1Cc2c(O)cc(O)cc2O[C@@H]1c1cc(O)c(O)c(O)c1)c1ccc(O)cc1 [Compound 21, (2R,3R)-5,7-dihydroxy-2-(3,4,5-trihydroxyphenyl)chroman-3-yl 4-hydroxybenzoate]	> 1000
O=C(O[C@@H]1Cc2c(O)cc(O)cc2O[C@H]1c1cc(O)c(O)c(O)c1F)c1cc(O)c(O)c(O)c1F [Compound 47, (2S,3R)-2-(2-fluoro-3,4,5-trihydroxyphenyl)-5,7-dihydroxychroman-3-yl 2-fluoro-3,4,5-trihydroxybenzoate]	< 100
O=C(N[C@H]1Cc2c(O)cc(O)cc2O[C@@H]1c1cc(O)c(O)c(O)c1)c1ccc(O)c(O)c1 [Compound 15, N-((2R,3S)-5,7-dihydroxy-2-(3,4,5-trihydroxyphenyl)chroman-3-yl)-3,4-dihydroxybenzamide]	> 1000
O=C(O[C@@H]1Cc2c(O)cc(O)cc2O[C@H]1c1cc(O)c(O)c(O)c1)c1cc(O)c(O)cc1O [Compound 42, (2S,3R)-5,7-dihydroxy-2-(3,4,5-trihydroxyphenyl)chroman-3-yl 2,4,5-trihydroxybenzoate]	> 100
O=C(O[C@@H]1Cc2c(O)cc(O)cc2O[C@H]1c1cc(O)c(O)c(O)c1)c1cc(O)c(O)cc1F [Compound 41, (2S,3R)-5,7-dihydroxy-2-(3,4,5-trihydroxyphenyl)chroman-3-yl 2-fluoro-4,5-dihydroxybenzoate]	> 100
O=C(O[C@@H]1Cc2c(O)cc(O)cc2O[C@@H]1c1cc(O)c(O)c(O)c1)c1ccc(F)c(F)c1 [Compound 25, (2R,3R)-5,7-dihydroxy-2-(3,4,5-trihydroxyphenyl)chroman-3-yl 3,4-difluorobenzoate]	> 1000
O=C(O[C@@H]1Cc2ccccc2O[C@H]1c1cc(O)c(O)c(O)c1)c1cc(O)c(O)c(O)c1 [Compound 39, (2S,3R)-2-(3,4,5-trihydroxyphenyl)chroman-3-yl 3,4,5-trihydroxybenzoate]	> 100
O=C(O[C@@H]1Cc2c(O)cc(O)cc2O[C@H]1c1cc(O)c(O)c(O)c1)[C@H]1CC[C@@H](O)CC1 [Compound 43, (2S,3R)-5,7-dihydroxy-2-(3,4,5-trihydroxyphenyl)chroman-3-yl (1s,4S)-4-hydroxycyclohexane-1-carboxylate]	> 1000
O=C(O[C@@H]1Cc2c(O)cc(O)cc2O[C@H]1c1cc(O)c(O)c(O)c1)c1cc(O)c(O)c(OC(F)F)c1 [Compound 60, (2S,3R)-5,7-dihydroxy-2-(3,4,5-trihydroxyphenyl)chroman-3-yl 3-(difluoromethoxy)-4,5-dihydroxybenzoate]	> 100
O=C(O[C@@H]1Cc2c(O)cc(O)cc2O[C@H]1c1cc(O)c(O)c(O)c1)c1cc(O)c(O)cc1C(F)(F)F [Compound 62, (2S,3R)-5,7-dihydroxy-2-(3,4,5-trihydroxyphenyl)chroman-3-yl 4,5-dihydroxy-2-(trifluoromethyl)benzoate]	> 100
CS(=O)(=O)Nc1ccc(C(=O)O[C@@H]2Cc3c(O)cc(O)cc3O[C@H]2c2cc(O)c(O)c(O)c2)cc1O [Compound 37, (2S,3R)-5,7-dihydroxy-2-(3,4,5-trihydroxyphenyl)chroman-3-yl 3-hydroxy-4-(methylsulfonamido)benzoate]	> 1000
O=C(O[C@H]1Cc2c(O)cc(O)cc2O[C@@H]1c1cc(O)c(O)c(O)c1)c1ccc(F)c(F)c1 [Compound 24, (2R,3S)-5,7-dihydroxy-2-(3,4,5-trihydroxyphenyl)chroman-3-yl 3,4-difluorobenzoate]	> 1000
CCNC(=O)Oc1c(O)cc([C@H]2Oc3cc(O)cc(O)c3C[C@H]2OC(=O)c2cc(O)c(O)c(O)c2)cc1O [Compound 72, (2R,3R)-2-(4-((ethylcarbamoyl)oxy)-3,5-dihydroxyphenyl)-5,7-dihydroxychroman-3-yl 3,4,5-trihydroxybenzoate]	> 100
